One may read the IC50 as the point on the concentration scale where inhibition reaches its midpoint.

The structures appear in SMILES notation.

This assay addresses T1, cGMP-PDE prepared from porcine aorta (Sus scrofa, UniProt A0A287B475).
T1 construct: The enzyme activity of CGMP-PDE prepared from porcine aorta was determined; from tissue; host or cells: porcine aorta, 100,000×g supernatant, DEAE-Toyopearl 650S fractions
Put plainly: Enzyme inhibitory activity using cGMP-PDE prepared from porcine aorta. The assay is classed as biochemical. As to conditions: CaM-independent cGMP-PDE fractions from porcine aorta; 1 μM cGMP substrate, 1 mM EGTA, DMSO 4% or below. Here is the method:
Enzyme Inhibitory activity using cGMP-PDE prepared from porcine aorta
The enzyme activity of CGMP-PDE prepared from porcine aorta was determined according to the method of Thompson et al. This determination was conducted in the presence of 1 mM EGTA by the use of 1 μM cGMP as the substrate. Each compound according to the present invention was dissolved in DMSO and added to the reaction system to determine the inhibitory activity thereof. The final concentration of DMSO in the reaction system was adjusted to 4% or below.
The cGMP-PDE was prepared as follows:
Porcine aorta was cut into fine pieces, followed by the addition of 10 times by volume as much buffer A (20 mM Tris/HCl, 2 mM Mg acetate, 1 mM dithiothreitol, 5 mM EDTA, 1400TIU/1 aprotinin, 10 mg/1 leupeptin, 1 mM benzamidine, 0.2 mM PMSF, pH7.5). The obtained mixture was homogenized and centrifuged at 100,000×g for one hour. The obtained supernatant was placed on a column of DEAE-Toyopearl 650S (a product of Tosoh, Tokyo, Japan), followed by the washing of the column with buffer B (50 mM Tris/HCl, 0.1 mM EGTA, 2 mM Mg acetate, 1 mM Dithiothreitol, 0.2 mM PMSF, pH7.5). The resulting column was subjected to gradient elution with 0.05 to 0.4M sodium chloride to obtain CaM-independent cGMP-PDE fractions.
In turn, `O=C(Nc1ccc(Cl)cc1C(=O)NCc1ccc2c(c1)OCO2)c1ccncc1` [Example 9, 5-Chloro-N-(3,4-methylenedioxybenzyl)-2-(isonicotinoylamino)benzamide] registered an IC50 of 28.8 nM.
The value for `O=C(NCc1ccc2c(c1)OCO2)c1cc(Cl)ccc1NC(=O)C1CCCCC1` [Example 19, 5-Chloro-2-[(cyclohexanecarbonyl)amino]-N-(3,4-methylenedioxybenzyl)benzamide] was 16.6 nM; that for `O=C(NCc1ccc2c(c1)OCO2)c1cc(Cl)ccc1NCc1ccncc1` [Example 33, 5-Chloro-N-(3,4-methylenedioxybenzyl)-2-(4-picolyl)aminobenzamide] was 20.5 nM.
With `O=C(NCc1ccc2c(c1)OCO2)c1cc(Cl)ccc1NC(=O)N1CCC(C(=O)O)CC1` [Example 38, 1-[[4-Chloro-2-[(3,4-methylenedioxybenzyl)carbamoyl]phenyl]carbamoyl]piperidine-4-carboxylic acid], the IC50 was 6.7 nM.
The value for `O=C(NCc1ccc2c(c1)OCO2)c1cc(Cl)ccc1NC(=O)[C@H]1CC[C@H](C(=O)O)CC1` [Example 39, 2-(trans-4-Carboxycyclohexanecarbonyl)amino-5-chloro-N-(3,4-methylenedioxybenzyl)benzamide] was 3.2 nM; that for `O=C(O)c1ccc(C(=O)Nc2ccc(Cl)cc2C(=O)NCc2ccc3c(c2)OCO3)cc1` [Example 41, 2-(4-Carboxybenzoyl)amino-5-chloro-N-(3,4-methylenedioxybenzyl)benzamide] was 1.4 nM; that for `COc1ccc(CNC(=O)c2cc(Cl)ccc2NC(=O)N2CCC(C(=O)O)CC2)cc1Cl` [Example 43] was 0.9 nM.
The value for `O=C(O)/C=C/C(=O)Nc1ccc(Cl)cc1C(=O)NCc1ccc2c(c1)OCO2` [Example 44, 2-(3-Carboxyacryoyl)amino-5-chloro-N-(3,4-methylenedioxybenzyl)benzamide] was 79.8 nM.
The value for `O=C(NCc1ccc2c(c1)OCO2)c1cc(Br)ccc1NC(=O)[C@H]1CC[C@H](C(=O)O)CC1` [Example 45, 5-Bromo-2-(trans-4-carboxycyclohexanecarbonyl)amino-N-(3,4-methylenedioxybenzyl)benzamide] was 0.7 nM; that for `O=C(NCc1ccc2c(c1)OCO2)c1cc(Cl)ccc1NC[C@H]1CC[C@H](C(=O)O)CC1` [Example 47] was 5.3 nM; that for `COc1ccc(CNC(=O)c2cc(C#N)ccc2NC(=O)N2CCC(O)CC2)cc1Cl` [Example 74, 1-[[2-[(3-Chloro-4-methoxybenzyl)carbamoyl]-4-cyanophenyl]carbamoyl]-4-hydroxypiperidine] was 2.4 nM.
`COc1ccc(CNC(=O)c2cc(C#N)ccc2NC(=O)c2ccncc2)cc1Cl` [Example 80, N-(3-Chloro-4-methoxybenzyl)-5-cyano-2-(isonicotinoylamino)benzamide]: half-maximal inhibition (IC50) required 11.9 nM.
The result for `COc1ccc(CNC(=O)c2cc(Br)ccc2NC(=O)c2ccncc2)cc1Cl` [Example 81] reads 14.5 nM.
The value for `COc1ccc(CNC(=O)c2cc(C#N)c(OC)cc2NC(=O)c2ccncc2)cc1Cl` [Example 83, N-(3-Chloro-4-methoxybenzyl)-5-cyano-2-(isonicotinoylamino)-4-methoxybenzamide] was 12.6 nM.
The value for `O=C(Nc1ccc(Br)cc1C(=O)NCc1ccc2c(c1)OCO2)c1ccncc1` [Example 85, 5-Bromo-2-(isonicotinoylamino)-N-(3,4-methylenedioxybenzyl)benzamide] was 21.7 nM; that for `COc1ccc(CNC(=O)c2cc(C#N)ccc2NC(=O)[C@H]2CC[C@H](O)CC2)cc1Cl` [Example 109, N-(3-Chloro-4-methoxybenzyl)-5-cyano-2-[(trans-4-hydroxycyclohexanecarbonyl)amino]benzamide] was 4.4 nM.
`COc1ccc(CNC(=O)c2cc(C#N)ccc2NC(=O)[C@H]2CC[C@H](C(=O)O)CC2)cc1Cl` [Example 110, 2-[(trans-4-Carboxycyclohexanecarbonyl)amino]-N-(3-chloro-4-methoxybenzyl)-5-cyanobenzamide] yielded an IC50 of 0.7 nM.
The result for `COc1ccc(CNC(=O)c2cc(Br)ccc2NC(=O)N2CCC(C(=O)O)CC2)cc1Cl` [Example 111, 1-[[4-Bromo-2-[(3-chloro-4-methoxybenzyl)carbamoyl]phenyl]carbamoyl]piperidine-4-carboxylic acid] reads 2 nM; that for `COc1ccc(CNC(=O)c2cc(Cl)ccc2NC(=O)[C@H]2CC[C@H](C(=O)O)CC2)cc1Cl` [Example 112, 2-[(trans-4-Carboxycyclohexanecarbonyl)amino]-5-chloro-N-(3-chloro-4-methoxybenzyl)benzamide], 5.3 nM; that for `COc1ccc(CNC(=O)c2cc(Br)ccc2NC(=O)[C@H]2CC[C@H](C(=O)O)CC2)cc1Cl` [Example 113, 5-Bromo-2-[(trans-4-carboxycyclohexanecarbonyl)amino]-N-(3-chloro-4-methoxybenzyl)benzamide], 0.4 nM.
The value for `COc1ccc(CNC(=O)c2cc([N+](=O)[O-])ccc2NC(=O)[C@H]2CC[C@H](C(=O)O)CC2)cc1Cl` [Example 114, 2-[(trans-4-Carboxycyclohexanecarbonyl)amino]-N-(3-chloro-4-methoxybenzyl)-5-nitrobenzamide] was 1.7 nM; that for `COc1ccc(CNC(=O)c2cc(Br)c(OC)cc2NC(=O)[C@H]2CC[C@H](C(=O)O)CC2)cc1Cl` [Example 115, 5-Bromo-2-[(trans-4-carboxycyclohexanecarbonyl)amino]-N-(8-chloro-4-methoxybenzyl)-4-methoxybenzamide] was 24.8 nM; that for `COc1ccc(CNC(=O)c2cc(C#N)c(OC)cc2NC(=O)[C@H]2CC[C@H](C(=O)O)CC2)cc1Cl` [Example 116] was 2.9 nM.
The result for `COc1ccc(CNC(=O)c2cc(S(=O)(=O)N(C)C)ccc2NC(=O)[C@H]2CC[C@H](C(=O)O)CC2)cc1Cl` [Example 117, 2-[(trans-4-Carboxycyclohexanecarbonyl)amino]-N-(3-chloro-4-methoxybenzyl)-5-dimethylsulfamoylbenzamide] reads 11.5 nM.
Turning to `COc1ccc(CNC(=O)c2cc(Cl)ccc2NC(=O)[C@H]2CC[C@H](C(=O)O)CC2)cc1C#N` [Example 120, 2-[(trans-4-Carboxycyclohexanecarbonyl)amino]-5-chloro-N-(3-cyano-4-methoxybenzyl)benzamide], it took 21.5 nM to reach half-maximal inhibition (IC50).
The value for `COc1cc(CNC(=O)c2cc(Cl)ccc2NC(=O)[C@H]2CC[C@H](C(=O)O)CC2)ccc1Cl` [Example 121, 2-[(trans-4-Carboxycyclohexanecarbonyl)amino]-5-chloro-N-(4-chloro-3-methoxybenzyl)benzamide] was 7.7 nM; that for `O=C(NCc1ccc2c(c1)OCO2)c1cc(Br)ccc1NC(=O)N1CCC(C(=O)O)CC1` [Example 122] was 5 nM.
The result for `O=C1c2c(NC(=O)[C@H]3CC[C@H](C(=O)O)CC3)ccc(Br)c2CN1Cc1ccc2c(c1)OCO2` [Example 123, 4-Bromo-7-[(trans-4-carboxycyclohexanecarbonyl)amino]-N-(3,4-methylenedioxybenzyl)isoindoline-1-one] reads 6.1 nM.
The value for `O=C(NCc1ccc2c(c1)OCO2)c1cc(OC(F)(F)F)ccc1NC(=O)[C@H]1CC[C@H](C(=O)O)CC1` [Example 125, 2-[(trans-4-Carboxycyclohexanecarbonyl)amino]-N-(3,4-methylenedioxybenzyl)-5-trifluoromethoxybenzamide] was 19.2 nM.
Turning to `O=C(NCc1ccc2c(c1)OCO2)c1cc(-n2cccn2)ccc1NC(=O)[C@H]1CC[C@H](C(=O)O)CC1` [Example 126, 2-[(trans-4-Carboxycyclohexanecarbonyl)amino]-N-(3,4-methylenedioxybenzyl)-5-(1-pyrazolyl)benzamide], the IC50 is 2.9 nM.
Consider `COc1cc(NC(=O)[C@H]2CC[C@H](C(=O)O)CC2)c(C(=O)NCc2ccc3c(c2)OCO3)cc1Br` [Example 129, 5-Bromo-2-[(trans-4-carboxycyclohexanecarbonyl)amino]-4-methoxy-N-(3,4-methylenedioxybenzyl)benzamide], for which the IC50 is 36.8 nM.
Compound `COc1ccc(CNC(=O)c2cc(C#N)ccc2NC(=O)[C@@H]2CCC(=O)O2)cc1Cl` [Example 136, N-(3-Chloro-4-methoxybenzyl)-5-cyano-2-[((S)-5-oxo-2-tetrahydrofurancarbonyl)amino]benzamide] returned an IC50 of 18.1 nM.
The result for `COc1ccc(CNC(=O)c2cc(Br)c(N)cc2NC(=O)[C@H]2CC[C@H](C(=O)O)CC2)cc1Cl` [Example 141, 4-Amino-5-bromo-2-[(trans-4-carboxycyclohexanecarbonyl)amino]-N-(3-chloro-4-methoxybenzyl)benzamide] reads 7.2 nM.

The values above are taken from patent US5716993A, “Anthranilic acid derivatives” (Eisai Co., Ltd., priority 1993, dated 1998).
